The source made the active and inactive calls. The rule behind the calls is not given here.
Columns and labels:
[1] = target: T1, DNA gyrase (Escherichia coli) (UniProt P0AES6+P0AES4); assay: Poison activity at Escherichia coli DNA gyrase assessed as stabilization of DNA cleavage complex by measuring linear plasmid DNA formation relative to control; assay type: protein-complex assay
[2] = target: DNA gyrase (Escherichia coli, UniProt P0AES4+P0AES6); assay: Inhibition of Escherichia coli DNA gyrase assessed as supercoiling activity by fluorescence assay relative to control; assay type: protein-complex assay
[3] = species on record: Bos taurus; assay: Binding affinity to calf thymus DNA by fluorescence-based DNA binding assay
[4] = target: T1, DNA gyrase (Escherichia coli); assay: Inhibition of Escherichia coli DNA gyrase super-coiling activity at 25uM; assay type: protein-complex assay
[5] = target: T1, DNA gyrase (Escherichia coli); assay: Inhibition of Escherichia coli DNA gyrase super-coiling activity at 50 uM; assay type: protein-complex assay
[6] = tested on: DNA; assay: Displacement of thiazole orange from DNA (unknown origin) by fluorescence assay; assay type: nucleic-acid assay

Structure (SMILES)	Activity [1]	IC50 [2] [µM]	Activity [3]	inhibition [4]	inhibition [5]	Activity [6]
COc1c(N2CC[C@@H](CN)C2)c(F)cc2c(=O)c(C(=O)O)cn(C3CC3)c12	Active	0.12	–	–	–	–
CCn1c(=O)n2nc(C(=O)O)cc2c2cc(F)c(N3CC[C@@H](CN)C3)cc21	–	> 50	–	–	–	–
N=C(N)NCCn1c(=O)c2cc(F)c(N3CC[C@@H](CN)C3)cc2n(C2CC2)c1=O	–	> 50	–	–	–	–
NCCn1c(=O)c2cc(F)c(N3CC[C@@H](CN)C3)cc2n(C2CC2)c1=O	–	> 50	–	–	–	–
CCOC(=O)c1cc2c3cc(F)c(N4CC[C@@H](CN)C4)cc3n(CC)c(=O)n2n1	–	> 50	–	–	–	–
CCOC(=O)c1cnn2c(=O)n(CC)c3cc(N4CC[C@@H](CN)C4)c(F)cc3c12	inactive	3.5	inactive	Active	Active	inactive
Cc1c(N2CC[C@@H](CN)C2)c(F)cc2c(=O)n(CCN)c(=O)n(C3CC3)c12	Active	17.6	–	Active	Active	–
COc1c(N2CC[C@@H](CN)C2)c(F)cc2c(=O)n(CCN)c(=O)n(C3CC3)c12	–	> 50	–	–	–	–
COc1c(N2CC[C@@H](CN)C2)c(F)cc2c(=O)n(CCNC(=N)N)c(=O)n(C3CC3)c12	–	> 50	–	–	–	–
Cc1c(N2CC[C@@H](CN)C2)c(F)cc2c(=O)n(N)c(=O)n(C3CC3)c12	Active	0.95	–	–	–	–
Cc1c(N2CC[C@@H](CN)C2)c(F)cc2c(=O)n(CCNC(=N)N)c(=O)n(C3CC3)c12	Active	11.5	–	Active	Active	–

From ChEMBL document CHEMBL4622836, “Identification of an ethyl 5,6-dihydropyrazolo[1,5-c]quinazoline-1-carboxylate as a catalytic inhibitor of DNA gyrase” (Bioorg Med Chem, 2020)
